# Results reported in patent publication US20130183237A1 (priority 2007, published 2013).
# Molecular target: thrombin (Homo sapiens, UniProt P00734)
# Conditions: fibrinogen 3 mg/ml, thrombin 20 nM, 37° C., no pre-incubation, dose-dependent
# Description: 200 μl of fibrinogen (final concentration 3 mg/ml) were incubated with 100 μl of peptides (various concentrations) at 37° C. Clotting of fibrinogen was initiated by the addition of 100 μl of thrombin (final concentration 20 nM). All reagents and samples were dissolved in 50 mM Tris buffer (pH 7.4) containing 100 mM NaCl.
sequence,measurement,value
APPFDFEAIPEEYLDDES [AP18],fibrinogen clotting time,prolonged
